This test concerns WT Mtb Erdman strain. The experiment in a line: Microplate Alamar Blue Assay (MABA), Mtb growth inhibition. The settings on record: Mycobacterium tuberculosis, ERDMAN, 168 h, Middlebrook 7H9 media, 7 days at 37° C. in 5% CO2. It is filed as cell-based, Mycobacterium tuberculosis. For orientation: Resazurin is reduced to fluorescent resorufin, in cell work by metabolically active cells.
For the compound `COc1ccc(CCCNc2nc(-c3ccoc3)nc3sc(C)cc23)cc1` [Example 118, 2-(furan-3-yl)-N-(3-(4-methoxyphenyl)propyl)-6-methylthieno[2,3-d]pyrimidin-4-amine], half-maximal inhibition (IC50) was put at 82 nM.

Consider `Cc1cc2c(NCCCc3ccccc3)nc(-c3cnsc3)nc2s1` [Example 119, 2-(isothiazol-4-yl)-6-methyl-N-(3-phenylpropyl)thieno [2,3-d]pyrimidin-4-amine], for which the IC50 (as a rule, the midpoint of a concentration-inhibition curve) was found to be 560 nM. As for `Cc1cc2c(NCCCc3ccccc3)nc(C3CCOC3)nc2s1` (stereo not shown) [Example 120, 6-methyl-N-(3-phenylpropyl)-2-(tetrahydrofuran-3-yl)thieno[2,3-d]pyrimidin-4-amine], the IC50 amounted to 3000 nM. The result for `Cc1cc2c(NCCCc3ccc(OC(F)(F)F)cc3)nc(-c3ccon3)nc2s1` [Example 121, 2-(isoxazol-3-yl)-6-methyl-N-(3-(4-(trifluoromethoxy)phenyl)propyl)thieno[2,3-d]pyrimidin-4-amine] reads 130 nM; that for `Cc1cc(-c2nc(NCCCc3ccc(OC(F)(F)F)cc3)c3cc(C)sc3n2)no1` [Example 122, 6-methyl-2-(5-methylisoxazol-3-yl)-N-(3-(4-(trifluoromethoxy)phenyl)propyl)thieno [2,3-d]pyrimidin-4-amine], 190 nM; that for `Cc1cc2c(NCCCc3ccc(OC(F)(F)F)cc3)nc(-c3ccccn3)nc2s1` [Example 123, 6-methyl-2-(pyridin-2-yl)-N-(3-(4-(trifluoromethoxy)phenyl)propyl)thieno [2,3-d]pyrimidin-4-amine], 1800 nM. Then `CSc1nc(NCCCc2ccc(OC(F)(F)F)cc2)c2cc(C)sc2n1` [Example 124, 6-methyl-2-(methylthio)-N-(3-(4-(trifluoromethoxy)phenyl)propyl) thieno[2,3-d]pyrimidin-4-amine], with 62 nM. The result for `Cc1cc2c(NCCCc3ccc(OC(F)(F)F)cc3)nc(-c3cnsc3)nc2s1` [Example 125, 2-(isothiazol-4-yl)-6-methyl-N-(3-(4-(trifluoromethoxy)phenyl)propyl)thieno [2,3-d]pyrimidin-4-amine] reads 610 nM; that for `Cc1cc2c(NCCCc3ccccc3)nc(-c3ccc(F)cc3)nc2s1` [Example 126, 2-(4-fluorophenyl)-6-methyl-N-(3-phenylpropyl)thieno [2,3-d]pyrimidin-4-amine], 2600 nM. `CCc1nc(NCCc2ccc(Cl)c(Cl)c2)c2cc(C)sc2n1` [Example 127, N-(3,4-dichlorophenethyl)-2-ethyl-6-methylthieno[2,3-d]pyrimidin-4-amine] returned an IC50 of 2800 nM. The result for `Cc1cc2c(NCCCc3ccccc3)nc(-c3cscn3)nc2s1` [Example 128, 6-methyl-N-(3-phenylpropyl)-2-(thiazol-4-yl)thieno[2,3-d]pyrimidin-4-amine] reads 660 nM; that for `Cc1cc2c(NCCCc3ccccc3)nc(-c3nnc[nH]3)nc2s1` [Example 129, 6-methyl-N-(3-phenylpropyl)-2-(4H-1,2,4-triazol-3-yl)thieno[2,3-d]pyrimidin-4-amine], 5600 nM. The result for `Cc1cc2c(NCCCc3ccccc3)nc(-c3cn[nH]c3)nc2s1` [Example 130, 6-methyl-N-(3-phenylpropyl)-2-(1H-pyrazol-4-yl)thieno[2,3-d]pyrimidin-4-amine] reads 2200 nM; that for `Cc1cc2c(NCCCc3ccccc3)nc(-n3ccnc3)nc2s1` [Example 131, 2-(1H-imidazol-1-yl)-6-methyl-N-(3-phenylpropyl)thieno [2,3-d]pyrimidin-4-amine], 3000 nM. `Cc1ccc(-c2nc(NCCCc3ccccc3)c3cc(C)sc3n2)o1` [Example 132, 6-methyl-2-(5-methylfuran-2-yl)-N-(3-phenylpropyl)thieno [2,3-d]pyrimidin-4-amine] registered an IC50 of 6600 nM. Against the preceding compound, the IC50 is about 2.2-fold higher. Consider `Cc1cc2c(NCCCc3ccccc3)nc(-c3cnn(C)c3)nc2s1` [Example 133, 6-methyl-2-(1-methyl-1H-pyrazol-4-yl)-N-(3-phenylpropyl)thieno [2,3-d]pyrimidin-4-amine], for which it took 270 nM to reach half-maximal inhibition (IC50). Compared with the last compound, the IC50 is about 24-fold lower. Compound `Cc1cc2c(NCCCc3ccccc3)nc(CC(C)C)nc2s1` [Example 134, 2-isobutyl-6-methyl-N-(3-phenylpropyl)thieno [2,3-d]pyrimidin-4-amine] had an IC50 of 440 nM.

`Cc1cc2c(NCCCc3ccccc3)nc(C(C)Cl)nc2s1` (stereo not shown) [Example 135, 2-(1-chloroethyl)-6-methyl-N-(3-phenylpropyl)thieno [2,3-d]pyrimidin-4-amine]: half-maximal inhibition (IC50) was put at 230 nM. Then `CCc1nc(NCCCc2ccc(OC(F)(F)F)c(C)c2)c2cc(C)sc2n1` [Example 136, 2-ethyl-6-methyl-N-(3-(3-methyl-4-(trifluoromethoxy)phenyl)propyl)thieno [2,3-d]pyrimidin-4-amine], with 690 nM; and `Cc1cc2c(NCCCc3ccccc3)nc(Cc3ccc(F)cc3)nc2s1` [Example 137, 2-(4-fluorobenzyl)-6-methyl-N-(3-phenylpropyl)thieno [2,3-d]pyrimidin-4-amine], with over 10000 nM.

Consider `Cc1cc2c(NCCCc3ccccc3)nc(CCc3ccccc3)nc2s1` [Example 138, 6-methyl-2-phenethyl-N-(3-phenylpropyl)thieno [2,3-d]pyrimidin-4-amine], for which the IC50 is over 10000 nM. `Cc1cc(-c2nc(NCCCc3ccccc3)c3cc(C)sc3n2)c(C)o1` [Example 139, 2-(2,5-dimethylfuran-3-yl)-6-methyl-N-(3-phenylpropyl)thieno [2,3-d]pyrimidin-4-amine] registered an IC50 of over 10000 nM.

Compound `Cc1cc(Cc2nc(NCCCc3ccccc3)c3cc(C)sc3n2)no1` [Example 140, 6-methyl-2-((5-methylisoxazol-3-yl)methyl)-N-(3-phenylpropyl)thieno [2,3-d]pyrimidin-4-amine] had an IC50 of over 10000 nM. Then `Cc1nc(-c2nc(NCCCc3ccccc3)c3cc(C)sc3n2)co1` [Example 141, 6-methyl-2-(2-methyloxazol-4-yl)-N-(3-phenylpropyl)thieno [2,3-d]pyrimidin-4-amine], with 1200 nM; and `Cc1cc2c(NCCCc3ccccc3)nc(SCc3ccccc3)nc2s1` [Example 142, 2-(benzylthio)-6-methyl-N-(3-phenylpropyl)thieno [2,3-d]pyrimidin-4-amine], with over 10000 nM. `Cc1cc2c(NCCCc3ccccc3)nc(-c3ncon3)nc2s1` [Example 143, 6-methyl-2-(1,2,4-oxadiazol-3-yl)-N-(3-phenylpropyl)thieno [2,3-d]pyrimidin-4-amine]: the IC50 is 220 nM. The result for `Cc1nc2c(N[C@@H]3C[C@H]3c3ccc(F)c(F)c3)nc(-c3ccc(C(F)(F)F)cn3)nc2s1` [Example 144, N-((1R,2S)-2-(3,4-difluorophenyl)cyclopropyl)-2-methyl-5-(5-(trifluoromethyl)pyridin-2-yl)thiazolo[5,4-d]pyrimidin-7-amine] reads over 10000 nM. Regarding `Cc1nc2c(NCCCc3ccccc3)nc(-c3ccc(C(F)(F)F)cn3)nc2s1` [Example 145, 2-methyl-N-(3-phenylpropyl)-5-(5-(trifluoromethyl)pyridin-2-yl)thiazolo[5,4-d]pyrimidin-7-amine], the IC50 stood at 7300 nM.

The record behind these values is patent publication US20240279236A1, “COMPOUNDS AND METHODS OF TREATING TUBERCULOSIS” (Fimbrion Therapeutics, Inc., priority 2021, published 2024).
